According to patent US10611750B2, “Tetrahydroquinoline compositions as bet bromodomain inhibitors” (FORMA Therapeutics, Inc., priority 2013, dated 2020):

What was measured:
[1] = target: T1, BRD4 Bromodomain 1 (BRD4 BD1) (Homo sapiens, UniProt O60885); assay: AlphaScreen binding assay, BRD4 BD1; conditions: His-tagged BRD4 BD1 50 nM, biotinylated H4 (1-21) K5/8/12/16 tetra-acetylated peptide 50 nM, compounds listed under IC50 range headings
T1 construct: 44-168 and BRD4 BD2
Description: The binding of Example compounds to BRD4 Bromodomain 1 and BRD4 Bromodomain 2 was assessed using 384-well AlphaScreen assay technology. His-epitope tagged BRD4 BD144-168 and BRD4 BD2333-460 were cloned, expressed, and purified to homogeneity. BRD4 BD1 and BRD4 BD2 binding and inhibition was assessed by monitoring the engagement of biotinylated Histone H4 (1-21) K5/8/12/16 tetra-acetylated peptide with the targets using the AlphaScreen technology (PerkinElmer). Specifically, in a 384-well black or white flat bottom plate, BRD4 BD1 (50 nM final) or BRD4 BD2 (100 nM final) was combined with peptide (50 nM final for BD1 or 100 nM final for BD2) in 50 mM HEPES (pH 7.3), 100 mM NaCl, 0.1% (w/v) BSA, and 0.01% (w/v) Triton X-100 either in the presence of DMSO (final 1.25% DMSO) or compound dilution series in DMSO. Alpha streptavidin donor beads and Nickel-chelate acceptor beads were added to a final concentration of 10 μg/ml each. After a minimum of 1 hour equilibration, plates were read on a BMG PHERAstar FS multi-label reader (BMG LabTech). The half maximal inhibitory concentration (IC50) values were calculated using IDBS Activity Base software with a four parameter logistic curve fit by the equation y=A+((B−A)/(1+((C/x)^D))), wherein A denotes the bottom plateau of the curve, B denotes the top plateau of the curve, C denotes the x value at the middle of the curve, D denotes the slope factor, x denotes the original known x values, and y denotes the original known y values. Data was fitted using the Levenburg Marquardt algorithm.

[2] = tested on: acute myelocytic leukemia (AML) cell line MV4-11; assay: Oncology cell growth assay (3-day proliferation, CellTiter-Glo); assay type: cell-based; conditions: Homo sapiens, MV4-11, 72 h, MV4-11 cells, 3000 cells/well, compounds listed under IC50 range headings, read-out: MV411 IC50 (gIC50, inhibition of proliferation)
Description: The impact of Example compounds on cancer cell proliferation was determined using the acute myelocytic leukemia (AML) cell line MV4-11 (ATCC) in a 3-day proliferation assay. MV4-11 cells were maintained in RPMI 1640 media supplemented with 10% FBS at 37° C. and an atmosphere of 5% CO2. For compound testing, compound dilutions series were prepared in DMSO via a 3-fold serial dilution from 2 mM to 0.001 mM in 384-well white flat bottom plates. The final compound concentrations in the wells were 10, 3.3, 1.1, 0.37, 0.12, 0.041, 0.013 and 0.0045 μM. MV4-11 cells were plated at a density of 3000 cells/well in final volume of 50 μl culture media and incubated for 72 hours. […] Luminescent signal from the CellTiter-Glo assay was read on an EnVision multilabel plate reader (PerkinElmer). Values for the concentration that inhibited cell growth by 50% (gIC50) between the DMSO control and background control (no cells) were determined using IDBS Activity Base software with a four parameter logistic curve fit by the equation y=A+((B−A)/(1+((C/x)^D))), wherein A denotes the bottom plateau of the curve, B denotes the top plateau of the curve, C denotes the x value at the middle of the curve, D denotes the slope factor, x denotes the original known x values, and y denotes the original known y values. Data was fitted using the Levenburg Marquardt algorithm.

SMILES | IC50 [1] | IC50 [2]
C[C@H]1CCc2c(ccc(-c3cn[nH]c3)c2OC2CCC2)N1C(=O)C1CC1 [I-54, (S)-(5-cyclobutoxy-2-methyl-6-(1H-pyrazol-4-yl)-3,4-dihydroquinolin-1 (2H)-yl)(cyclopropyl)methanone] | 100 to 1000 nM | < 500 nM
C[C@H]1CCc2c(ccc(-c3cnn(C)c3)c2OC2CCC2)N1C(=O)C1CC1 [I-55, (S)-(5-cyclobutoxy-2-methyl-6-(1-methyl-1H-pyrazol-4-yl)-3,4-dihydroquinolin-1 (2H)-yl)(cyclopropyl)methanone] | 100 to 1000 nM | < 500 nM
C[C@H]1CCc2c(ccc(-c3ccn[nH]3)c2OC2CCC2)N1C(=O)C1CC1 [I-56, (S)-(5-cyclobutoxy-2-methyl-6-(1H-pyrazol-5-yl)-3,4-dihydroquinolin-1(2H)-yl)(cyclopropyl)methanone] | 1000 to 10000 nM | 500 to 1000 nM
C[C@H]1CCc2c(ccc(-c3cn(C)cn3)c2OC2CCC2)N1C(=O)C1CC1 [I-57, (S)-(5-cyclobutoxy-2-methyl-6-(1-methyl-1H-imidazol-4-yl)-3,4-dihydroquinolin-1(2H)-yl)(cyclopropyl)methanone] | 100 to 1000 nM | < 500 nM
C[C@H]1CCc2c(OC3CCC3)c(-c3cnn(C4CC4)c3)cc(F)c2N1C(=O)C1CC1 [I-69, (S)-(5-cyclobutoxy-6-(1-cyclopropyl-1H-pyrazol-4-yl)-8-fluoro-2-methyl-3,4-dihydroquinolin-1(2H)-yl)(cyclopropyl)methanone] | 1000 to 10000 nM | 500 to 1000 nM
C[C@H]1CCc2c(OC3CCC3)c(-c3cn[nH]c3)cc(F)c2N1C(=O)C1CC1 [I-70, (S)-(5-cyclobutoxy-8-fluoro-2-methyl-6-(1H-pyrazol-4-yl)-3,4-dihydroquinolin-1(2H)-yl)(cyclopropyl)methanone] | 1000 to 10000 nM | 500 to 1000 nM
COC(=O)N1c2c(F)cc(-c3cnn(C4CC4)c3)c(OC3CCC3)c2CC[C@@H]1C [I-71, (S)-methyl 5-cyclobutoxy-6-(1-cyclopropyl-1H-pyrazol-4-yl)-8-fluoro-2-methyl-3,4-dihydroquinoline-1(2H)-carboxylate] | 100 to 1000 nM | 500 to 1000 nM
COC(=O)N1c2c(F)cc(-c3cn[nH]c3)c(OC3CCC3)c2CC[C@@H]1C [I-72, (S)-methyl 5-cyclobutoxy-8-fluoro-2-methyl-6-(1H-pyrazol-4-yl)-3,4-dihydroquinoline-1(2H)-carboxylate] | 100 to 1000 nM | < 500 nM
CC(=O)N1c2c(F)cc(-c3cnn(C4CC4)c3)c(OC3CCC3)c2CC[C@@H]1C [I-73, (S)-1-(5-cyclobutoxy-6-(1-cyclopropyl-1H-pyrazol-4-yl)-8-fluoro-2-methyl-3,4-dihydroquinolin-1(2H)-yl)ethanone] | 100 to 1000 nM | 500 to 1000 nM
CC(=O)N1c2c(F)cc(-c3cn[nH]c3)c(OC3CCC3)c2CC[C@@H]1C [I-74, (S)-1-(5-cyclobutoxy-8-fluoro-2-methyl-6-(1H-pyrazol-4-yl)-3,4-dihydroquinolin-1(2H)-yl)ethanone] | 1000 to 10000 nM | 500 to 1000 nM
CC(=O)N1c2c(F)c(F)c(-c3cnn(C4CC4)c3)c(OC3CCC3)c2CC[C@@H]1C [I-75, (S)-1-(5-cyclobutoxy-6-(1-cyclopropyl-1H-pyrazol-4-yl)-7,8-difluoro-2-methyl-3,4-dihydroquinolin-1 (2H)-yl)ethanone] | ≥ 10000 nM | > 1000 nM
C[C@H]1CCc2c(ccc(-c3cnn(C4CCNCC4)c3)c2Oc2cccc(Cl)n2)N1C(=O)C1CC1 [I-94, (S)-(5-(6-chloropyridin-2-yloxy)-2-methyl-6-(1-(piperidin-4-yl)-1H-pyrazol-4-yl)-3,4-dihydroquinolin-1(2H)-yl)(cyclopropyl)methanone] | 1000 to 10000 nM | < 500 nM
C[C@H]1CCc2c(ccc(-c3cnn(C4CCNCC4)c3)c2Oc2ccccn2)N1C(=O)C1CC1 [I-95, (S)-cyclopropyl(2-methyl-6-(1-(piperidin-4-yl)-1H-pyrazol-4-yl)-5-(pyridin-2-yloxy)-3,4-dihydroquinolin-1(2H)-yl)methanone] | 1000 to 10000 nM | < 500 nM
COC(=O)N1c2ccc(-c3cnn(C4CCNCC4)c3)c(Oc3ccccn3)c2CC[C@@H]1C [I-96, (S)-methyl 2-methyl-6-(1-(piperidin-4-yl)-1H-pyrazol-4-yl)-5-(pyridin-2-yloxy)-3,4-dihydroquinoline-1(2H)-carboxylate] | 100 to 1000 nM | < 500 nM
C[C@H]1CCc2c(ccc(-c3cnn(C4CCNCC4)c3)c2Oc2cccc(F)n2)N1C(=O)C1CC1 [I-97, (S)-cyclopropyl(5-(6-fluoropyridin-2-yloxy)-2-methyl-6-(1-(piperidin-4-yl)-1H-pyrazol-4-yl)-3,4-dihydroquinolin-1(2H)-yl)methanone] | 100 to 1000 nM | < 500 nM
COc1cccc(Oc2c(-c3cnn(C4CCNCC4)c3)ccc3c2CC[C@H](C)N3C(=O)C2CC2)n1 [I-98, (S)-cyclopropyl(5-(6-methoxypyridin-2-yloxy)-2-methyl-6-(1-(piperidin-4-yl)-1H-pyrazol-4-yl)-3,4-dihydroquinolin-1(2H)-yl)methanone] | 100 to 1000 nM | < 500 nM
C[C@H]1CCc2c(OC3CCC3)c(-c3cnn(C4CCNCC4)c3)cc(F)c2N1C(=O)C1CC1 [I-103, (S)-(5-cyclobutoxy-8-fluoro-2-methyl-6-(1-(piperidin-4-yl)-1H-pyrazol-4-yl)-3,4-dihydroquinolin-1(2H)-yl)(cyclopropyl)methanone] | 100 to 1000 nM | < 500 nM
CC(=O)N1c2c(F)cc(-c3cnn(C4CCNCC4)c3)c(OC3CCC3)c2CC[C@@H]1C [I-105, (S)-1-(5-cyclobutoxy-8-fluoro-2-methyl-6-(1-(piperidin-4-yl)-1H-pyrazol-4-yl)-3,4-dihydroquinolin-1(2H)-yl)ethanone] | 100 to 1000 nM | < 500 nM
CC(=O)N1c2c(F)c(F)c(-c3cnn(C4CCNCC4)c3)c(OC3CCC3)c2CC[C@@H]1C [I-106, (S)-1-(5-cyclobutoxy-7,8-difluoro-2-methyl-6-(1-(piperidin-4-yl)-1H-pyrazol-4-yl)-3,4-dihydroquinolin-1 (2H)-yl)ethanone] | 1000 to 10000 nM | > 1000 nM
COC(=O)N1c2ccc(-c3cnn(C4CC5CNCC5C4)c3)c(OC3CCC3)c2CC[C@@H]1C (stereo partly drawn) [I-109, (2S)-methyl 5-cyclobutoxy-2-methyl-6-(1-(octahydrocyclopenta[c]pyrrol-5-yl)-1H-pyrazol-4-yl)-3,4-dihydroquinoline-1(2H)-carboxylate] | 100 to 1000 nM | < 500 nM
COC(=O)N1c2c(F)cc(-c3cnn(C4CCNCC4)c3)c(OC3CCC3)c2CC[C@@H]1C [I-110, (S)-methyl 5-cyclobutoxy-8-fluoro-2-methyl-6-(1-(piperidin-4-yl)-1H-pyrazol-4-yl)-3,4-dihydroquinoline-1(2H)-carboxylate] | 100 to 1000 nM | < 500 nM
C[C@H]1CCc2c(ccc(-c3cnoc3)c2OC2CCC2)N1C(=O)C1CC1 [I-123, (S)-(5-cyclobutoxy-6-(isoxazol-4-yl)-2-methyl-3,4-dihydroquinolin-1(2H)-yl)(cyclopropyl)methanone] | 1000 to 10000 nM | > 1000 nM
C[C@H]1CCc2c(OC3CCC3)c(-c3cn(C)nn3)cc(F)c2N1C(=O)C1CC1 [I-124, (S)-(5-cyclobutoxy-8-fluoro-2-methyl-6-(1-methyl-1H-1,2,3-triazol-4-yl)-3,4-dihydroquinolin-1 (2H)-yl)(cyclopropyl)methanone] | 100 to 1000 nM | 500 to 1000 nM
COC(=O)N1c2c(F)cc(-c3cn(C)nn3)c(OC3CCC3)c2CC[C@@H]1C [I-125, (S)-methyl 5-cyclobutoxy-8-fluoro-2-methyl-6-(1-methyl-1H-1,2,3-triazol-4-yl)-3,4-dihydroquinoline-1(2H)-carboxylate] | 1000 to 10000 nM | > 1000 nM
